Assay: gradient 5% acetonitrile 3 min, to 50% in 2 min, to 85% in 15 min, held 3 min, 100 µL/min
Conditions: column: Zorbax Extend-C18 2.1 x 50 mm; eluents: water / acetonitrile, 0.1% formic acid
In short: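 Pure standards were analyzed in mixtures of ~100 molecules using HPLC coupled to a quadrupole time-of-flight mass spectrometer, in both positive and negative ionization mode. Separation used a Zorbax Extend-C18 column (2.1 × 50 mm, 1.8 μm) at 100 μL/min, with water and acetonitrile each containing 0.1% formic acid. Dead and dwell volumes were 40 μL and 900 μL, and data were collected over 3 months. Retention time was read from computationally picked adduct peaks, each inspected manually.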

For `Cc1ccccc1Nc1c(-c2cccc(Cl)c2)nc2ncccn12`, which RP-LC retention time is on record?
The RP-LC retention time was 901 s.

Which RP-LC retention time does the source give for `CCNc1nc(C)cc(N2CCN(S(=O)(=O)c3ccc(OC)c(C)c3C)CC2)n1` here?
The RP-LC retention time was 764 s.

Which RP-LC retention time does the source give for `CCCCOC(=O)C1=CN(C)S(=O)(=O)N=C1C` here?
The RP-LC retention time was 875 s.

With `Cc1cc(F)cc2c(=O)c3c([nH]c12)CCN(CC(=O)Nc1cccc(Cl)c1)C3` as the compound, how does the RP-LC retention time read?
Its RP-LC retention time is 646 s.

Which RP-LC retention time does the source give for `Cc1nnc(N2CCCC(C(=O)NCCc3ccc(Cl)cc3)C2)c2nn(-c3ccccc3)c(C)c12` (configuration not stated) here?
Its RP-LC retention time is 784 s.

With `C#CCn1c(=O)c2c(ncn2C)n(C)c1=O` as the compound, how does the RP-LC retention time read?
Its RP-LC retention time is 629 s.

With `Cc1cc2ccccc2n1CCNC(=O)C(=O)c1c[nH]c2ccccc12` as the compound, how does the RP-LC retention time read?
Its RP-LC retention time is 1010 s.

With `O=C(NC1CCN(C(=O)c2cc(-c3cccs3)[nH]n2)CC1)c1cccs1` as the compound, how does the RP-LC retention time read?
The RP-LC retention time was 695 s.

Which RP-LC retention time does the source give for `COc1cccc(CC(=O)N2CCC3(CC2)N=C(c2ccc(Cl)cc2)NO3)c1` here?
The RP-LC retention time was 922 s.

For `CC(C)(C)c1noc(-c2ccc(=O)n(Cc3ccc(Cl)cc3)n2)n1`, which RP-LC retention time is on record?
Its RP-LC retention time is 1120 s.

With `Cc1cc2nc(C(=O)Nc3cccc(C#N)c3)cc(C)n2n1` as the compound, how does the RP-LC retention time read?
The RP-LC retention time was 901 s.

Which RP-LC retention time does the source give for `Cc1cc(C)nc(N2CCN(c3ccc(Cl)cc3)CC2)n1` here?
The RP-LC retention time was 1050 s.

For `COc1ccc(-n2nc3c(N4CCCC(C(=O)NCCc5ccco5)C4)nnc(C)c3c2C)cc1` (configuration not stated), which RP-LC retention time is on record?
Its RP-LC retention time is 712 s.

For `O=C(CSc1nc(N2CCCCC2)nc2ccccc12)Nc1ccc(Br)cc1`, which RP-LC retention time is on record?
Its RP-LC retention time is 810 s.

For `CC(=O)Nc1ccc(-c2nnc3n2CCCC3)cc1`, which RP-LC retention time is on record?
The RP-LC retention time was 563 s.

With `COc1ccc(Cn2ccc3ccc(C(=O)NO)cc32)cc1` as the compound, how does the RP-LC retention time read?
Its RP-LC retention time is 782 s.

Which RP-LC retention time does the source give for `CCN(Cc1ccccc1)c1ccc(-c2noc(CN3CCCC(C)C3)n2)cn1` (configuration not stated) here?
The RP-LC retention time was 792 s.

With `CCN(Cc1ccccc1)C(=O)CN1C(=O)N(c2cc(C)cc(C)c2)C2CS(=O)(=O)CC21` (configuration not stated) as the compound, how does the RP-LC retention time read?
The RP-LC retention time was 893 s.

With `O=C(CN1CCC2(CC1)N=C(c1ccc(Cl)cc1)C(=O)N2)Nc1cc(F)ccc1F` as the compound, how does the RP-LC retention time read?
Its RP-LC retention time is 696 s.

With `O=C(NCCCN1CCOCC1)C1CCN(c2nc3cccnc3s2)CC1` as the compound, how does the RP-LC retention time read?
The RP-LC retention time was 568 s.

For `O=C(Nc1cccn2c(C3CCC3)nnc12)C1COc2ccccc2O1` (configuration not stated), which RP-LC retention time is on record?
The RP-LC retention time was 837 s.

For `O=C(Nc1ccc(-c2nc(-c3ccccc3)co2)cc1)c1cccs1`, which RP-LC retention time is on record?
Its RP-LC retention time is 1100 s.

Which RP-LC retention time does the source give for `CCc1ccc2nc(Nc3nc(C)c4c(n3)CCCC4)nc(C)c2c1` here?
Its RP-LC retention time is 754 s.

For `Cn1cc(CC(=O)NCc2cc(F)cc(F)c2)c2cccnc21`, which RP-LC retention time is on record?
The RP-LC retention time was 702 s.

For `Cc1ccc(CNC(=O)C2(C)CN(S(C)(=O)=O)CC(=O)N2Cc2ccc(Cl)cc2)cc1` (configuration not stated), which RP-LC retention time is on record?
Its RP-LC retention time is 906 s.

With `CC(NC(=O)c1cnc(-c2ccccc2)nc1-c1ccncc1)c1ccc(F)cc1` (configuration not stated) as the compound, how does the RP-LC retention time read?
Its RP-LC retention time is 868 s.

With `CCn1c(=O)c(C(=O)NCCN2CCc3ccccc3C2)nc2cccnc21` as the compound, how does the RP-LC retention time read?
Its RP-LC retention time is 620 s.

For `CCCNC(=O)C1CCN(c2ccc(SCC(=O)Nc3cc(F)cc(F)c3)nn2)CC1`, which RP-LC retention time is on record?
Its RP-LC retention time is 665 s.

With `CC(C)Oc1ccc(-c2noc(Cn3c(=O)n(Cc4ccccc4)c(=O)c4sccc43)n2)cc1` as the compound, how does the RP-LC retention time read?
Its RP-LC retention time is 1170 s.

For `CCC(C)NC(=O)c1ccc(-c2ccc(N3CCSCC3)nc2)cc1` (configuration not stated), which RP-LC retention time is on record?
The RP-LC retention time was 711 s.

For `CCOc1ccc(C2C(C(=O)O)c3ccccc3C(=O)N2CCN2CCOCC2)cc1` (configuration not stated), which RP-LC retention time is on record?
The RP-LC retention time was 649 s.

With `CCC(=O)N1CCN(c2nc(C)cc(N3CCCC3)n2)CC1` as the compound, how does the RP-LC retention time read?
The RP-LC retention time was 604 s.

For `Cc1ccc(Cl)cc1NC(=O)CN1CCN(c2ccc(F)cc2)CC1`, which RP-LC retention time is on record?
The RP-LC retention time was 658 s.

With `Cc1cc2c(=O)n(CC(=O)NCc3ccccc3Cl)c3cccnc3n2n1` as the compound, how does the RP-LC retention time read?
Its RP-LC retention time is 729 s.

Which RP-LC retention time does the source give for `O=C1C(=O)N(C2CCN(S(=O)(=O)c3ccc(F)c(Cl)c3)CC2)CCN1Cc1ccccc1` here?
Its RP-LC retention time is 862 s.

With `CC(C)NC(=O)c1cc2c(n(-c3ccc(C(F)(F)F)cc3)c1=O)CCCC2=O` as the compound, how does the RP-LC retention time read?
Its RP-LC retention time is 883 s.

Which RP-LC retention time does the source give for `O=C(NCc1ccccc1)C1CC(=O)N(c2ccc3c(c2)CCN3C(=O)C2CC2)C1` (configuration not stated) here?
The RP-LC retention time was 727 s.
